Experimental data published in article PMC4822800, “Modifications of the 7-Hydroxyl Group of the Transthyretin Ligand Luteolin Provide Mechanistic Insights into Its Binding Properties and High Plasma Specificity” (PLoS ONE, 2016).
Like-named read-outs stand apart in the source and are kept apart here.

Legend:
TTR [1] = molecular target: T1, TTR (Homo sapiens, UniProt P02766); assay: Microscale thermophoresis (MST) binding to NT-647-labelled TTR; settings: 300 nM NT-647-labelled TTR, PBS, 5% DMSO, mean ± S.E.M. of three measurements, read-out: dissociation constant (Kd)
T1 construct: Expression of TTR was performed as described previously; made in house; host or cells: Escherichia coli BL21
Protocol: We used MST to measure the affinity between the different ligands and TTR. TTR was labelled with the Monolith NT protein labelling kit (Nanotemper Technologies, Germany) using the sulfhydryl-reactive red fluorescent dye NT-647 Maleimide according to the manufacturer’s instructions. Labelled TTR was kept at a constant concentration of 300 nM, and luteolin, 7-Cl-Lut and 7-MeO-Lut were serially diluted yielding 13, 16 and 12 respectively different concentrations ranging from 0.24 nM to 1 μM for luteolin, 0.24 nM to 8 μM for 7-Cl-Lut, and 0.61 nM to 1.25 μM for 7-MeO-Lut. Experiments were carried out in phosphate-buffered saline and 5% DMSO with a Monolith NT.115 instrument using standard-treated capillaries (Nanotemper Technologies, Germany). Fluorescence was detected for 5 s, and the laser was switched on for 30 s followed by fluorescence detection for another 5 s. The delay time between runs was set to 25 s. The LED power and the MST were set to 80% for all drugs. Kd values were determined using NTanalysis software (NanoTemper Technologies, Germany) by fitting the data representing the mean ± S.E.M. from three independent measurements to the Kd fit model.
In order to obtain binding affinities between the drugs and TTR, we employed microscale thermophoresis (MST), which is a technique based on the directed movement of molecules in a temperature gradient. This phenomenon depends on a variety of molecular properties such as size, charge, hydration shell, and conformation. The dissociation constant (Kd) for luteolin was determined to be 150 ± 70 nM, which is in accordance with the previously published value of 100 nM determined by isothermal titration calorimetry (Fig 3A).
Fig 3 Binding of luteolin, 7-Cl-Lut and 7-MeO-Lut to NT-647–labeled TTR. Various concentrations of the compounds were titrated against 300 nM of NT-647–labeled TTR. Kd values were determined by averaging three independent experiments (mean ± S.E.M.) using the NT analysis software. The thermophoresis signal was plotted against luteolin (A), 7-Cl-Lut (B) and 7-MeO-Lut (C) concentrations.

[2] = Glucuronidation / depletion kinetics in human liver microsomes (UHPLC); format: in vitro ADME; settings: for half-life at 10 μM: female, pooled human liver microsomes, alamethicin-activated, 10 μM compound, 0.1 mg/mL human liver microsomes, 5 mM UDPGA, 37°C, one-phase exponential decay, read-out: half-life (t1/2); for metabolic stability relative to luteolin: human hepatic microsomes, glucuronidation by UGT enzymes
Protocol: Pooled female human liver microsomes (n = 10) were purchased from XenoTech (Lenexa, US) and stored at −80°C and rapidly thawed before use. The microsomes, 0.1 mg/mL, were activated by incubation with alamethicin (Santa Cruz Biotechnology, US), 50 μg/mL microsomal protein, in 0.1 M sodium phosphate buffer using a VWR Mini Shaker (Radnor, US) at 37°C and 550 rpm for 10 min. Luteolin, 7-Cl-Lut or 7-MeO-Lut was added to give a final concentration of 10 μM and 5% DMSO, and these were pre-incubated with the activated microsomes for 5 min at 37°C and shaking at 550 rpm. The reaction was initiated by addition of 5 mM uridine 5’-diphosphoglucuronic acid, (Santa Cruz Biotechnology, US). The incubation time ranged from 0 min to 5 h. The reactions were quenched by flash freezing and stored at −80°C. The microsomes were heat inactivated using a VWR UnoCycler (Radnor, US) for 5 min at 95°C. All experiments were repeated three times.
In order to calculate depletion kinetics, the percentage of the remaining drug was calculated by comparison with the initial quantity at 0 min. The half-life (t1/2) of luteolin, 7-Cl-Lut and 7-MeO-Lut was calculated using GraphPad Prism (GraphPad Software, Inc., US, version 5.0). Data were fitted to one-phase exponential decay: C=C0*exp(-K*t) (1) The half-life(t1/2)=0.693/K (2)
Microsome-treated samples were diluted in 50% DMSO. Analytical HPLC was performed using a Nexera UHPLC system (Shimadzu, US) connected to a diode array detector (SPP M20A). Samples were analyzed using a Nucleodur C18 HTec column (EC 150 × 4.6, 5 μm, Macherey-Nagel) with a flow rate of 1 mL/min. Aliquots of 20 μL of each sample were injected, and detection was performed at 345 nm. The mobile phase was composed of solvent A (H2O in 0.1% TFA) and solvent B (acetonitrile in 0.1% TFA). The binary gradient profile was as follows with solvent B as the reference: 0–2.5 min, 17% B; 2.5–7.5 min, 17–25% B; 7.5–15.5 min, 25–35% B; 15.5–20.5 min, 35–50% B; 20.5–25.5 min, 50–100% B; 25.5–30.5 min, 100% B; 30.5–31 min, 100–17% B; 31–35.5 min, 17% B. Before first injection, the column was equilibrated at 17% B for 5 min.
The metabolization of luteolin, 7-Cl-Lut and 7-MeO-Lut by the microsomes can be followed by the decrease in the substrate concentration over time. The data shown in Fig 7 were fitted to a single-component exponential decay model and the half-lives were determined using Eqs (1) and (2). Luteolin was metabolized about 3-fold faster than 7-Cl-Lut with half-lives of 16 ± 1 min and 52 ± 7 min, respectively.
Fig 7 Depletion profile of 10 μM luteolin (triangle), 7-Cl-Lut (square) and 7-MeO-Lut (diamond) after incubation in the presence of 0.1 mg/mL human liver microsomes for various times. Each time point represents the average of three independent samples (mean ± SD) acquired through plotting the integral of the corresponding peaks from the UHPLC analysis.

TTR in human plasma = molecular target: T2, TTR in human plasma (Homo sapiens, UniProt P02766); assay: Urea-mediated denaturation gel-shift assay of TTR stabilization in human plasma (western blot of monomers); format: biochemical; settings: for IC50: 4 M urea, 18 h, 20°C, densitometry of the monomeric band, read-out: IC50 (half maximal inhibitory concentration of TTR dissociation into monomers); for stoichiometric excess relative to TTR in human plasma to achieve the same stabilizing effect as luteolin: TTR assumed 5 μM
T2 construct: Human plasma from a healthy donor; from tissue; host or cells: human plasma (healthy donor)
Protocol: We have recently developed an assay in which the relative stability as a function of drug concentration can be evaluated in complex solutions [21]. TTR is found within the human plasma, and it is thus of interest to analyze drug efficacy in TTR’s natural environment. The analysis was performed as described previously with some modifications. Human plasma from a healthy donor was centrifuged at 20,000 × g for 10 min. The plasma was filtered using a 0.45 μm syringe filter (Filtropur S, Nümbrecht, Germany). A solution of 1 M sodium phosphate buffer at pH 7.0 was added to a final concentration of 40 mM. […] The reactions were incubated for 2 h at 20°C. Denaturation was initiated by addition of 4 M urea, 40 mM sodium phosphate buffer pH 7.4, and 150 mM NaCl. The samples were incubated for 18 h at 20°C followed by separation by gel electrophoresis using tricine-based SDS-PAGE with 0.025% SDS in the running buffer and 0.2% SDS in the loading buffer. […] Gel electrophoresis was followed by western blotting using rabbit anti-TTR antibody (anti-prealbumin, DAKO, Denmark) followed by a horseradish peroxidase-labeled antibody (anti-rabbit HRP, GE Healthcare, Sweden). Blocking of nonspecific binding on the membrane and incubation of the antibodies were performed in 5% fat-free powdered milk containing 0.3% Tween-20. All washing steps were performed in 40 mM Tris, 150 mM NaCl, and 0.3% Tween-20. Bound antibodies were visualized on photographic film using enhanced chemiluminescence (ECL-prime, GE Healthcare, UK). […] The presence of monomers on the photographic film was quantified through a densitometric analysis using the ImageJ 1.48 software (National Institutes of Health, […], US), which also ensured that all analyses were performed within a linear range. The plasma concentration of TTR is approximately 5 μM [38], and this implies that a drug must be present at ≥5 μM to work effectively as a stabilizer. Here we used a recently developed urea-mediated denaturation assay to determine the drug concentration needed in plasma to obtain the half maximal inhibitory concentration (IC50). In the experiment, the dissociation of TTR into monomers is monitored by the appearance of a monomeric band on a western blot (Fig 8). The fraction of denaturation was quantified by densitometric analysis using ImageJ 1.48 software. […] Fig 8 Determination of IC50 for luteolin, 7-Cl-Lut and 7-MeO-Lut in human plasma. The drug’s ability to selectively stabilize TTR in plasma was evaluated using a urea denaturation assay. The dissociation of the TTR tetramer is indicated by the presence of a monomeric TTR band on a western blot. (A) Gel-shift assay of various concentrations of luteolin in human plasma. […] (C) Gel-shift assay of various concentrations of 7-MeO-Lut in human plasma.

TTR [3] = molecular target: T1, TTR; parameters: method as in ref 49 = [49]; PMID 22842046; doi:10.1016/j.jsb.2012.07.008; 49 Trivella DB , dos Reis CV , Lima LM , Foguel D , Polikarpov I ( 2012 ) Flavonoid interactions with human transthyretin: combined structural and thermodynamic analysis . J Struct Biol 180 : 143 – 15; settings: binding to TTR; cited from earlier work
TTR [4] = molecular target: T1, TTR; parameters: method as in ref 37 = [37]; PMID 22842046; doi:10.1016/j.jsb.2012.07.008; 37 Trivella DBB , dos Reis CV , Lima LMTR , Foguel D , Polikarpov I ( 2012 ) Flavonoid interactions with human transthyretin: Combined structural and thermodynamic analysis . Journal of Structural Bio; settings: isothermal titration calorimetry; read-out: Kd, previously published value; cited from earlier work
[5] = parameters: method as in PMID 23556338; settings: in vivo persistence against metabolic activity; cited from earlier work

| Kd (TTR [1]) [nM] | half-life at 10 μM [2] [min] | metabolic stability relative to luteolin [2] | IC50 (TTR in human plasma) [nM] | stoichiometric excess relative to TTR in human plasma to achieve the same stabilizing effect as luteolin (TTR in human plasma) [fold] | Structure (SMILES) | times lower affinity compared to luteolin (TTR [3]) [times] | Kd (TTR [4]) [nM] | half-life [5] |
| --- | --- | --- | --- | --- | --- | --- | --- | --- |
| 620 ± 150 | 52 ± 7 | approximately 3 fold | ~65000 | 13 | O=c1cc(-c2ccc(O)c(O)c2)oc2cc(Cl)cc(O)c12 [7-Cl-Lut, 2-(3,4-dihydroxyphenyl)-5-hydroxy-7-chloro-4H-1-benzopyran-4-one] | – | – | – |
| 390 ± 40 | 36 ± 8 | doubled | ~105000 | 21 | COc1cc(O)c2c(=O)cc(-c3ccc(O)c(O)c3)oc2c1 [7-MeO-Lut, 2-(3,4-dihydroxyphenyl)-5-hydroxy-7-methoxy-4H-1-benzopyran-4-one] | – | – | – |
| – | – | – | – | – | O=c1cc(-c2ccc(O)cc2)oc2cc(O)cc(O)c12 [apigenin] | 5 | – | – |
| – | – | – | – | – | O=c1cc(-c2ccccc2)oc2cc(O)cc(O)c12 [chrysin] | 17 | – | – |
| 150 ± 70 | 16 ± 1 | – | ~5000 | – | O=c1cc(-c2ccc(O)c(O)c2)oc2cc(O)cc(O)c12 [luteolin] | – | 100 | around 8 hours |
